Reference: the NIST ThermoML archive (doi:10.1016/j.jct.2017.07.006)

Key:
[1] = molar heat capacity at constant pressure; settings: 101.33 kPa, Liquid, DSC
[2] = Liquid; for thermal conductivity: 101.33 kPa, Laser flash apparatus; for Critical pressure / Critical temperature: Resistive pulse heating

CCCCCCCCCCCC(=O)OCC(COC(=O)CCCCCCCCCCC)OC(=O)CCCCCCCCCCC [1,2,3-propanetriyl tridodecanoate]
Settings | molar heat capacity at constant pressure, [1] [J/K/mol] | thermal conductivity, [2] [W/m/K]
330 K | 1316 | 0.164
335 K | 1323 | 0.163
340 K | 1331 | 0.162
345 K | 1340 | 0.161
350 K | 1350 | 0.161
355 K | 1361 | 0.16
360 K | 1372 | 0.16
365 K | 1384 | 0.159
370 K | 1396 | 0.159
375 K | 1407 | 0.158
380 K | 1418 | 0.158
385 K | 1428 | 0.157
390 K | 1438 | 0.156
395 K | 1446 | 0.155
400 K | 1453 | 0.154
405 K | 1458 | 0.153
410 K | 1461 | 0.151

[2]
Settings | Critical pressure [kPa] | Critical temperature [K]
– | 650 | 899

CCCCCCCCCC(=O)OCC(COC(=O)CCCCCCCCC)OC(=O)CCCCCCCCC [1,2,3-propanetriyl tridecanoate]
Settings | molar heat capacity at constant pressure, [1] [J/K/mol] | thermal conductivity, [2] [W/m/K]
320 K | 1093 | 0.153
325 K | 1106 | 0.153
330 K | 1117 | 0.153
335 K | 1128 | 0.153
340 K | 1139 | 0.153
345 K | 1148 | 0.153
350 K | 1157 | 0.152
355 K | 1166 | 0.152
360 K | 1174 | 0.151
365 K | 1182 | 0.15
370 K | 1189 | 0.15
375 K | 1196 | 0.15
380 K | 1203 | 0.149
385 K | 1209 | 0.148
390 K | 1216 | 0.147
395 K | 1222 | 0.147
400 K | 1228 | 0.146
405 K | 1235 | 0.145
410 K | 1241 | 0.144
415 K | 1248 | 0.143

[2]
Settings | Critical pressure [kPa] | Critical temperature [K]
– | 750 | 864

CCCCCCCC(=O)OCC(COC(=O)CCCCCCC)OC(=O)CCCCCCC [1,2,3-propanetriol trioctanoate]
Settings | molar heat capacity at constant pressure, [1] [J/K/mol] | thermal conductivity, [2] [W/m/K]
315 K | 913.3 | 0.152
320 K | 921 | 0.152
325 K | 928.5 | 0.151
330 K | 935.9 | 0.151
335 K | 943.1 | 0.151
340 K | 950.2 | 0.15
345 K | 957.1 | 0.15
350 K | 964 | 0.15
355 K | 970.7 | 0.149
360 K | 977.4 | 0.149
365 K | 984.1 | 0.148
370 K | 990.7 | 0.148
375 K | 997.2 | 0.147
380 K | 1004 | 0.146
385 K | 1010 | 0.146
390 K | 1017 | 0.145
395 K | 1024 | 0.145
400 K | 1030 | 0.144
405 K | 1037 | 0.144
410 K | 1044 | 0.143
415 K | 1051 | 0.142
420 K | 1058 | 0.142
425 K | 1065 | 0.141

[2]
Settings | Critical pressure [kPa] | Critical temperature [K]
– | 830 | 836

CCCCCCCCCCCCCC(=O)OCC(COC(=O)CCCCCCCCCCCCC)OC(=O)CCCCCCCCCCCCC [1,2,3-propanetriyl tri(tetradecanoate)]
Settings | molar heat capacity at constant pressure, [1] [J/K/mol] | thermal conductivity, [2] [W/m/K]
350 K | 1547 | 0.171
355 K | 1557 | 0.17
360 K | 1568 | 0.17
365 K | 1580 | 0.169
370 K | 1592 | 0.169
375 K | 1606 | 0.168
380 K | 1619 | 0.168
385 K | 1632 | 0.168
390 K | 1645 | 0.167
395 K | 1657 | 0.167
400 K | 1668 | 0.166
405 K | 1678 | 0.165
410 K | 1686 | 0.164

[2]
Settings | Critical pressure [kPa] | Critical temperature [K]
– | 610 | 925
